The results in this text go back to US20220305115A1 (JANSSEN SCIENCES IRELAND UNLIMITED COMPANY, priority 2019, published 2022).

Broadly, the CC50 is the concentration at which the toxic effect on the cells reaches its halfway point.

Holding throughout (type): cell-based
The test system of one data set is MRC-5 cells. The data set is described as follows: Off-target cytotoxicity, MRC-5 cells (Cell Titer Glo, 5 days). As to conditions: MRC-5, five days incubation, intracellular ATP; read-out: CC50 MHCS CTG 50. The source says:
(§1) To assess potential off-target toxicity of certain compounds disclosed herein, the in vitro cytotoxicity of those compounds was profiled using a panel of 5 cell lines with various tissue origins. Compound cytotoxicity was examined in hepatoma-derived Huh-7 and HepG2 cells, prostate carcinoma-derived PC-3 cells, lymphoma derived MT-4 cells and a normal diploid lung cell line MRC-5. HepG2 and PC-3 cells used were adapted to grow in glucose-free galactose-containing medium. These cells have a relatively higher sensitivity to inhibitors of mitochondrial oxidative phosphorylation compared to the same cells maintained in standard glucose-containing culture medium (Marroquin et al., Toxicol. Sci. 2007; 97 (2):539-47). Cell viability was determined by measuring intracellular ATP levels following five days of continuous incubation with test compounds.
(§2) The human hepatoma Huh-7 cell line was obtained from ReBLikon GmbH (Mainz, Germany) {20879}. The MT-4 cell line (HTLV-1 transformed, human T lymphoblastoid cells) was obtained from the NIH AIDS Reagent program (Bathesda, Md.). The human hepatoblastoma cell line HepG2, human prostate carcinoma cell line PC-3, and normal fetal lung derived MRC-5 cells were obtained from the American Type Culture Collection (ATCC, Manassas, Va.).
(§3) Huh-7 cells were maintained in Dulbecco's Modified Eagle Medium (DMEM) supplemented with 10% fetal bovine serum (FBS, Hyclone, Logan, Utah), 1% non-essential amino acids (Gibco, Carlsbad, Calif.). PC-3 and HepG2 cells were adapted to grow in 0.2% galactose-containing, glucose-free Dulbecco's Modified Eagle Medium (DMEM) supplemented with 10% fetal bovine serum (FBS, Hyclone, Logan, Utah), 1% non-essential amino acids (Gibco, Carlsbad, Calif.), 1% Pyruvate (Cellgro), 1% Glutamax (Invitrogen, Carlsbad, Calif.). Galactose-adapted cells were maintained in the same culture medium. MRC-5 cells were maintained in Eagle's Minimum Essential Medium (EMEM) supplemented with 10% fetal bovine serum (FBS, Hyclone, Logan, Utah). MT-4 cells were maintained in RPMI-1640 supplemented with 10% fetal bovine serum (FBS, Hyclone, Logan, Utah). All cell culture media were also supplemented with 100 Units/mL penicillin, 100 μg/mL streptomycin (Gibco).
(§4) Using a Biotek uFlow Workstation (Biotek, Winooski, Vt.), 1500 HepG2, 1500 PC-3, 500 Huh7 or 1500 MRC-5 cells in 90 μL of culture media were dispensed into each well of black polystyrene tissue culture-treated 384-well plates. Plated cells were incubated for 24 hours in an incubator at 37° C., 5% CO2 and 90% humidity. Compound serial dilutions were performed in 100% DMSO in 384-well polypropylene (high recovery) plates on a Biomek FX Workstation (Beckman Coulter, Fullerton, Calif.). After 3-fold serial dilutions, 0.4 μL of compounds were transferred into 384-well plates containing cells using a Velocity 11 system equipped with a Bravo 384-well pipettor. The DMSO concentration in the final assay plates was 0.44% (v/v). Cells were incubated with compound(s) for five days at 37° C. Puromycin (44 μM final concentration) and DMSO (0.44%, v/v) were used as a positive and negative controls, respectively
(§5) At the end of the incubation period the cytotoxicity assay was performed as follows: Media from 384-well cell culture plates were aspirated with a Biotek EL405 plate-washer (Biotek) and cells were washed with 100 μL PBS once. Twenty microliters of Cell Titer Glo (Promega, Madison, Wis.) was added to each well of the plates with a Biotek uFlow liquid dispenser. Plates were incubated for 15 minutes at room temperature before luminescence was measured with a Perkin Elmer Envision Plate Reader (Perkin Elmer, Waltham, Mass.).
(§6) CC50 values were defined as the compound concentration that caused a 50% decrease in luminescence signal, and were calculated by non-linear regression using Pipeline Pilot software by applying a four parameter fit equation (Accelrys, San Diego, Calif.). Individual CC50 values are listed as μM concentrations.
For orientation: In ATP-based viability assays light output follows the ATP content of the culture.

Data set [1] is described as follows: Off-target cytotoxicity, MT-4 cells (Cell Titer Glo, 5 days). As to conditions: human, MT-4, five days incubation, intracellular ATP, read-out: CC50 (MT4).
Source text: as §1, with “These cells have a relatively higher sensitivity to inhibitors of mitochondrial oxidative phosphorylation compared to the same cells maintained in standard glucose-containing culture medium (Marroquin et al., Toxicol. Sci. 2007; 97 (2):539-47).” left out
(§7) The MT-4 cell line (HTLV-1 transformed, human T lymphoblastoid cells) was obtained from the NIH AIDS Reagent program (Bathesda, Md.). The human hepatoblastoma cell line HepG2, human prostate carcinoma cell line PC-3, and normal fetal lung derived MRC-5 cells were obtained from the American Type Culture Collection (ATCC, Manassas, Va.).
as §3, with “MT-4 cells were maintained in RPMI-1640 supplemented with 10% fetal bovine serum (FBS, Hyclone, Logan, Utah).” left out
For the MT-4 cytotoxicity assay, 0.4 μL of serially diluted compounds were added to 40 μl of cell maintenance media in 384-well black, solid bottom plate using a Biomek FX workstation (Beckman Coulter). Two thousand cells in 35 μL were added to each well using a Biotek uFlow Workstation (Biotek). […] Assay plates were incubated for five days at 37° C. in an incubator set at 5% CO2 and 90% humidity. After five days, 22 μL of Cell Titer Glo reagent (Promega) was added to the assay plates with a Biotek uFlow Workstation. Plates were subsequently placed on a Perkin Elmer Envision Plate Reader for five minutes before the luminescence signal was read.

The nature of data set [2]: Off-target cytotoxicity, Huh-7 cells (Cell Titer Glo, 5 days). The following applies: human, Huh-7 cells; Huh-7, five days incubation, intracellular ATP; read-out: CC50 HEH7 CTG 50.
Source text: as §1, §2, §3, §4, §5, §6

A short description of data set [3]: Off-target cytotoxicity, galactose-adapted PC-3 cells (Cell Titer Glo, 5 days). The following applies: human, galactose-adapted PC-3, five days incubation, intracellular ATP, read-out: CC50 GALFC3 CTG 50.
Source text: as §1, with “These cells have a relatively higher sensitivity to inhibitors of mitochondrial oxidative phosphorylation compared to the same cells maintained in standard glucose-containing culture medium (Marroquin et al., Toxicol. Sci. 2007; 97 (2):539-47).” left out
as §7
as §3, with “MT-4 cells were maintained in RPMI-1640 supplemented with 10% fetal bovine serum (FBS, Hyclone, Logan, Utah).” left out
as §4, with “C.” for “C. Puromycin (44 μM final concentration) and DMSO (0.44%, v/v) were used as a positive and negative controls, respectively”
as §5

The nature of data set [4]: Off-target cytotoxicity, galactose-adapted HepG2 cells (Cell Titer Glo, 5 days). As to conditions: human, galactose-adapted HepG2, five days incubation, intracellular ATP, read-out: CC50 GALHEPG2 CTG 50.
Source text: as §1, §2, §3, §4, §5, §6

Data set [5] is described as follows: Off-target cytotoxicity, MRC-5 cells (Cell Titer Glo, 5 days). As to conditions: human, MRC-5 cells; MRC-5, five days incubation, intracellular ATP; read-out: CC50 MHCS CTG 50.
Source text: as §1, §2, §3, §4, §5, §6

The next data set deals with Huh-7 cells. The data set is described as follows: Off-target cytotoxicity, Huh-7 cells (Cell Titer Glo, 5 days). As to conditions: Huh-7, five days incubation, intracellular ATP; read-out: CC50 HEH7 CTG 50.
Source text: as §1, §2, §3, §4, §5, §6

As to `CCCC[C@@](C)(Nc1nc(N)nc2cc(F)cnc12)C(C)O` (single isomer, unassigned) [Compound 95], the CC50 in the data set on MRC-5 cells was found to be 44.4 µM. The CC50 at 5 days in data set [1] turned out to be 44.1 µM; in data set [2], 31.3 µM; in data set [3], 16.8 µM; in data set [4] it was 28.1 µM.

Take `CCCC[C@H](CO)Nc1nc(N)nc2cccnc12` [Compound 15, (R)-2-((2-aminopyrido[3,2-d]pyrimidin-4-yl)amino)hexan-1-ol]: the CC50 at 5 days in data set [5] is 7.6 µM; in data set [1], 8.62 µM; in data set [2], 19.7 µM; in data set [3], 0.69 µM; in data set [4], 1.23 µM.

Take `CCCC[C@H](CO)Nc1nc(N)nc2cc(F)cnc12` [Compound 44, (R)-2-((2-amino-7-fluoropyrido[3,2-d]pyrimidin-4-yl)amino)hexan-1-ol]: the CC50 at 5 days was 3.72 µM in data set [5]; 1.97 µM in data set [1]; 9.64 µM in data set [2]; 0.52 µM in data set [3]; 1.07 µM in data set [4].

Regarding `CCCC[C@@](C)(CO)Nc1nc(N)nc2cc(F)cnc12` [Compound 64, (S)-2-((2-amino-7-fluoropyrido[3,2-d]pyrimidin-4-yl)amino)-2-methylhexan-1-ol], the CC50 at 5 days in data set [5] turned out to be 6.97 µM; in data set [1], 6.79 µM; in data set [2], 10.4 µM; in data set [3], 1.99 µM; in data set [4], 3.56 µM.

For the compound `CCCC[C@](C)(CNC(C)=O)Nc1nc(N)nc2cc(Cl)cnc12` [Compound 65, (R)—N-(2-((2-amino-7-chloropyrido[3,2-d]pyrimidin-4-yl)amino)-2-methylhexyl)acetamide], the CC50 with MRC-5 cells and with Huh-7 cells was 44.4 µM throughout. The CC50 at 5 days in data set [1] is 56.6 µM; in data set [3], 44.4 µM; in data set [4] it was at least 44.4 µM.

For `CCCC[C@](CO)(Nc1nc(N)nc2cccnc12)C(F)(F)F` [Compound 93, (R)-2-((2-aminopyrido[3,2-d]pyrimidin-4-yl)amino)-2-(trifluoromethyl)hexan-1-ol], the CC50 at 5 days is 38.9 µM in data set [5], 18.6 µM in data set [1], 3.63 µM in data set [3] and 7.73 µM in data set [4]. For the same compound, the CC50 in the data set on Huh-7 cells was found to be 44.4 µM.

On to `CCCC[C@](C)(CO)Nc1nc(N)nc2cc(F)cnc12` [Compound 98, (R)-2-((2-amino-7-fluoropyrido[3,2-d]pyrimidin-4-yl)amino)-2-methylhexan-1-ol], for which the CC50 at 5 days in data set [5] worked out at 24.4 µM; in data set [1] it was 16.2 µM; in data set [2], 21.9 µM; in data set [3], 4.53 µM; in data set [4], 6.7 µM.

`CCCC[C@](C)(CNC(C)=O)Nc1nc(N)nc2cc(F)cnc12` [Compound 101, (R)—N-(2-((2-amino-7-fluoropyrido[3,2-d]pyrimidin-4-yl)amino)-2-methylhexyl)acetamide]: the CC50 in the data set with MRC-5 cells and in the data set on Huh-7 cells was 44.4 µM in each case. The CC50 at 5 days in data set [1] was 56.6 µM; in data set [3] it was 44.4 µM; in data set [4], at least 44.4 µM.

Take `CCCC[C@@H](Nc1nc(N)nc2cc(F)cnc12)C(O)CF` (stereo partly drawn) [Compound 102, (3R)-3-((2-amino-7-fluoropyrido[3,2-d]pyrimidin-4-yl)amino)-1-fluoroheptan-2-ol]: the CC50 in the data set on MRC-5 cells and in the data set with Huh-7 cells was 44.4 µM throughout. In addition, the CC50 at 5 days in data set [1] was found to be 57.1 µM; in data set [3], 19.1 µM; in data set [4], 27.4 µM.
